Data on one compound can be found in publication PMC7598995, “HT-SuMD: making molecular dynamics simulations suitable for fragment-based screening. A comparative study with NMR” (Journal of Enzyme Inhibition and Medicinal Chemistry, 2020).

By Kd is commonly meant the constant that tells how readily two partners part at equilibrium.

The target of the assay is T1, Bcl-XL (Homo sapiens, UniProt Q07817).
T1 construct: gene BCL2L1; human Bcl-XL lacking the C-terminus domain (Δ209-233), 6His-tagged
The assay can be described thus: NMR: […] SOFAST-HMQC titration, plus STD and WaterLOGSY. It counts as binding.

T1 sequence (Q07817 1-208): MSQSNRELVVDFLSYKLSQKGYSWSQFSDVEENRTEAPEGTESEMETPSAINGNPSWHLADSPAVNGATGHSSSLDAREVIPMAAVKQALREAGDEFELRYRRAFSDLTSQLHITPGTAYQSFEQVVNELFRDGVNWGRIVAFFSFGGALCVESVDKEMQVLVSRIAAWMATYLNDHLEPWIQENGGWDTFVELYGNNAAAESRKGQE

In the case of `Oc1ccccc1Cc1ccccc1` [compound 222, fragment 222], the Kd amounted to 1000 ± 400 µM.
